# In patent publication US10093675B2, “6,8-disubstituted-9-(heterocyclyl)purines, compositions containing these derivatives and their use in cosmetic and medicinal applications” (USTAV EXPERIMENTALNI BOTANIKY AV CR, V.V.I., priority 2014, dated 2018):
# Read-outs that look alike come from different tables or passages of the source.
# Experiments:
# [1] = tested on: cytokinin-dependent tobacco callus Nicotiana tabacum L. cv. Wisconsin 38; assay: Plant cell division: growth of cytokinin-dependent tobacco callus; type: cell-based; conditions: for Activity (%); (s.d.): relative activity at concentration with highest activity, 10^−6 M kinetin set at 100%; for Concentration with highest activity (mol/l): tobacco callus fresh weight increase after four weeks, tested 10^−8 M to 10^−4 M
# [2] = tested on: normal diploid fibroblasts BJ; assay: In vitro cytotoxic activity (Calcein AM), BJ; type: cell-based, human; conditions: 72 hours, read-out: Cell line tested/IC50 (μmol/L) BJ
# Procedure, shortened: (§1)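 Calcein fluorescence, read 1 hour after adding Calcein AM at 1 μg/ml final, measured viability following 72 hours of compound treatment at 37° C. Compounds were tested as six 3-fold dilutions from usually 100 μM in triplicate. GI50 was the concentration reducing conversion by 50%.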
# [3] = tested on: T-lymphoblastic leukemia cell line CEM; assay: In vitro cytotoxic activity (Calcein AM), CEM; type: cell-based, human; conditions: 72 hours, read-out: Cell line tested/IC50 (μmol/L) CEM
# Procedure, shortened: as §1
# [4] = tested on: erytroid leukemia cell line K-562; assay: In vitro cytotoxic activity (Calcein AM), K-562; type: cell-based, human; conditions: read-out: Cell line tested/IC50 (μmol/L) K-562
# Procedure, shortened: as §1
# [5] = tested on: breast carcinoma cell line MCF-7; assay: In vitro cytotoxic activity (Calcein AM), MCF-7; type: cell-based, human; conditions: read-out: Cell line tested/IC50 (μmol/L) MCF7
# Procedure, shortened: as §1
# [6] = tested on: osteosarcoma cell line HOS; assay: In vitro cytotoxic activity (Calcein AM), HOS; type: cell-based, human; conditions: 72 hours, read-out: Cell line tested/IC50 (μmol/L) HOS
# Procedure, shortened: as §1
# melanoma cell line G-361 = assay: In vitro cytotoxic activity (Calcein AM), G-361; type: cell-based, human; conditions: read-out: Cell line tested/IC50 (μmol/L) G-361
# Procedure, shortened: as §1
# [7] = tested on: Human diploid fibroblast BJ; assay: In vitro cytotoxic activity (MTT); type: cell-based; conditions: 72 hours incubation; concentration causing 20% decrease in mitochondrial dehydrogenase activity
# [8] = tested on: Salmonella typhimurium histidien auxotrophs TA98 and TA100; assay: Ames test; type: cell-based; conditions: 2.5 to 5000 μg/plate; presence and absence of Aroclor-induced rat liver S9
# Procedure, shortened: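 Strains TA98 and TA100 exposed to compounds in DMSO at 2.5, 5.0, 15, 50, 500, 1500 and 5000 μg/plate following standard Ames/Maron protocols.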
SMILES,Activity (%); (s.d.) [1],Concentration with highest activity (mol/l) [1],IC50 [2] [µmol/L],IC50 [3] [µmol/L],IC50 ([4]; 72 hours) [µmol/L],IC50 ([5]; 72 hours) [µmol/L],IC50 [6] [µmol/L],IC50 (melanoma cell line G-361; 72 hours) [µmol/L],GI20 [7] [µM],mutagenic response [8],"IC50 ([2]; Homo sapiens, Fibroblast) [µmol/L]",IC50 ([3]; Homo sapiens) [µmol/L],"IC50 ([4]; Homo sapiens, K562, 72 hours) [µmol/L]","IC50 ([5]; Homo sapiens, MCF7, 72 hours) [µmol/L]",IC50 ([6]; Homo sapiens) [µmol/L],"IC50 (melanoma cell line G-361; Homo sapiens, G-361, 72 hours) [µmol/L]"
COc1cccc(CNc2ncnc3c2nc(Cl)n3C2CCCO2)c1 (stereo not shown) [Compound 69],111 (±5) %,10^−6-10^−4 mol/l,> 50,> 50,> 50,> 50,> 50,> 50,>100,no positive mutagenic responses,–,–,–,–,–,–
Fc1cccc(CNc2ncnc3c2nc(Br)n3C2CCCCO2)c1 (stereo not shown) [Compound 26],117 (±4) %,10^−6-10^−5 mol/l,> 50,> 50,> 50,> 50,> 50,> 50,>100,no positive mutagenic responses,–,–,–,–,–,–
"COc1nc2c(NCc3ccco3)ncnc2n1C1CCCCO1 (stereo not shown) [Compound 124, 6-Furfurylamino-8-methoxy-9-(tetrahydropyran-2-yl)-9H-purine]",105 (±2) %,–,–,–,–,–,–,–,>100,no positive mutagenic responses,> 50,> 50,> 50,> 50,> 50,> 50
Fc1ccc(CNc2ncnc3c2nc(Br)n3C2CCCCO2)cc1F (stereo not shown) [Compound 27],115 (±4) %,10^−6-10^−5 mol/l,> 50,> 50,> 50,> 50,> 50,> 50,>100,no positive mutagenic responses,–,–,–,–,–,–
"C/C(=C\CNc1ncnc2c1nc(Br)n2C1CCCCO1)CO (stereo not shown) [Compound 24, (E)-8-Bromo-6-(4-hydroxy-3-methylbut-2-en-1-ylamino)-9-(tetrahydropyran-2-yl)-9H-purine]",128 (±8) %,–,–,–,–,–,–,–,>100,no positive mutagenic responses,> 50,> 50,> 50,> 50,> 50,> 50
C/C(=C\CNc1ncnc2c1nc(Cl)n2C1CCCO1)CO (stereo not shown) [Compound 64],130 (±10) %,10^−6-10^−4 mol/l,> 50,> 50,> 50,> 50,> 50,> 50,>100,no positive mutagenic responses,–,–,–,–,–,–
"CSc1nc2c(NCc3ccco3)ncnc2n1C1CCCCO1 (stereo not shown) [Compound 145, 6-Furfurylamino-8-methylsulfanyl-9-(tetrahydropyran-2-yl)-9H-purine]",103 (±5) %,–,–,–,–,–,–,–,>100,no positive mutagenic responses,> 50,> 50,> 50,> 50,> 50,> 50
